Values quoted from earlier work as cited in patent US20240122227A1, “AEROSOLIZABLE MATERIAL” (Nicoventures Trading Limited, priority 2019, published 2024).

Molecular target: CB2 receptor compared to the CB1 receptor (Homo sapiens, UniProt P34972)
Details: see Br J Pharmacol. 2001 October; 134(4): 845-852

Chain of CB2 receptor compared to the CB1 receptor (P34972 whole entry): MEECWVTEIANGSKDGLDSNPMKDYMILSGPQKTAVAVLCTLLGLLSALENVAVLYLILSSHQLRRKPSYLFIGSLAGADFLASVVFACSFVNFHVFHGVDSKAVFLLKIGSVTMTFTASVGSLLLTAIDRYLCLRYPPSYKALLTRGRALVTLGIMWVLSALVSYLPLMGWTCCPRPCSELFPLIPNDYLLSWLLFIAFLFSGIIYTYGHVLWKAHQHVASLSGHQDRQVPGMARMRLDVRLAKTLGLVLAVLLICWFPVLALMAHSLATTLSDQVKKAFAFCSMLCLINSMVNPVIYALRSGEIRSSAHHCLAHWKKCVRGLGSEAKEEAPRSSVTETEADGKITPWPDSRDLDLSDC

Structure (SMILES)	selectivity for the CB2 receptor compared to the CB1 receptor
C=C(C)[C@H]1CCC(C)=C[C@@H]1c1c(O)cc(CCCCC)cc1O [(+)-cannabidiol]	increased selectivity for the CB2 receptor compared to the CB1 receptor
C=C(C)[C@@H]1CCC(C)=C[C@H]1c1c(O)cc(CCCCC)cc1O [(−)-cannabidiol]	does not show any selectivity between the two receptors
